Test results reported in ChEMBL document CHEMBL1132839, “Substituted 3-(2-benzoxazyl)-benzimidazol-2-(1H)-ones: a new class of GABA(A) brain receptor ligands” (Bioorg Med Chem Lett, 2000).

Molecular target: GABA-A receptor; anion channel
Test: Binding affinity against GABA-A benzodiazepine receptor
Assay type: protein-complex assay

| Compound | Ki [µM] |
| --- | --- |
| Oc1nc2c(n1-c1nc3cccc(F)c3o1)CCCC2 | 0.052 |
| O=C1NC2CCCCCC2N1c1nc2ncccc2o1 (stereo not given) | 0.137 |
| Cn1c(=O)n(-c2nc3ccccc3o2)c2ccccc21 | > 10 |
| Oc1nc2c(n1-c1nc3ccc(F)cc3o1)CCCC2 | 0.047 |
| O=C1NC2CCCCC2N1c1nc2ncccc2o1 (stereo not given) | > 1 |
| Oc1nc2ccc(F)cc2n1-c1nc2ccccc2o1 | 0.058 |
| O=C1NC2CCCCCC2N1c1nc2cc(F)c(F)cc2o1 (stereo not given) | 0.087 |
| O=C1NC2CCCCCC2N1c1nc2c(F)cc(F)cc2o1 (stereo not given) | 0.065 |
| Oc1nc2ccccc2n1-c1nc2ccccc2s1 | > 10 |
| Oc1nc2cccnc2n1-c1nc2ccccc2o1 | 0.723 |
| Oc1nc2c(n1-c1nc3ccccc3o1)CCCC2 | 0.056 |
| Cc1ccc2nc(-n3c(O)nc4ccccc43)oc2c1 | 0.303 |
| Oc1nc2ccccc2n1-c1nc2ncccc2o1 | 0.044 |
| Cc1ccc2nc(N3C(=O)NC4CCCCCC43)oc2c1 (stereo not given) | 0.158 |
| COc1ccc2oc(-n3c(O)nc4c3CCCC4)nc2c1 | 0.081 |
| COc1ccc2nc(-n3c(O)nc4c3CCCC4)oc2c1 | 0.239 |
| Oc1nc2ccccc2n1-c1nc2cc(F)ccc2o1 | 0.162 |
| COc1ccc2nc(-n3c(O)nc4ccccc43)oc2c1 | 0.61 |
| Oc1nc2ccccc2n1-c1nc2ccccc2o1 | 0.054 |
| COc1ccc2nc(N3C(=O)NC4CCCCCC43)oc2c1 (stereo not given) | 0.254 |
| COc1ccc2oc(-n3c(O)nc4ccccc43)nc2c1 | 0.091 |
| Oc1nc2ccccc2n1-c1nc2ccc(F)cc2o1 | 0.089 |

Results, then the compound that gave them:

| Ki [µM] | Compound |
| --- | --- |
| 0.003 | O=C1NC2CCCCCC2N1c1nc2ccc(F)c(F)c2o1 (stereo not given) |
| 0.008 | O=C1NC2CCCCCC2N1c1nc2ccccc2o1 (stereo not given) |
| 0.02 | Oc1nc2ccccc2n1-c1nc2ccc(F)c(F)c2o1 |
| 0.021 | Oc1nc2c(n1-c1nc3ccc(F)c(F)c3o1)CCCC2 |
| 0.014 | Oc1nc2cc(F)ccc2n1-c1nc2cccc(F)c2o1 |
| 0.025 | Oc1nc2cc(F)ccc2n1-c1nc2ccc(F)cc2o1 |
| 0.032 | Oc1nc2cc(F)ccc2n1-c1nc2ccccc2o1 |
| 0.007 | O=C1NC2CCCCCC2N1c1nc2cc(F)cc(F)c2o1 (stereo not given) |
| 0.005 | O=C1NC2CCCCCC2N1c1nc2cccc(F)c2o1 (stereo not given) |
| 0.026 | Oc1nc2c(n1-c1nc3cc(F)ccc3o1)CCCC2 |
| 0.004 | Oc1nc2ccccc2c2nc(-c3ccccc3)nn12 |
| 0.015 | Cc1ccc2oc(N3C(=O)NC4CCCCCC43)nc2c1 (stereo not given) |
| 0.025 | COc1ccc2oc(N3C(=O)NC4CCCCCC43)nc2c1 (stereo not given) |
| 0.015 | Oc1nc2ccc(F)cc2n1-c1nc2cccc(F)c2o1 |
| 0.005 | O=C1NC2CCCCCC2N1c1nc2ccc(F)cc2o1 (stereo not given) |
| 0.005 | O=C1NC2CCCCCC2N1c1nc2cc(F)ccc2o1 (stereo not given) |
| 0.039 | Oc1nc2ccccc2n1-c1nc2cccc(F)c2o1 |

Molecular target: GABA-A receptor; anion channel
Test: Inhibition of GABA-A benzodiazepine receptor
Assay type: protein-complex assay

| IC50 [µM] | Compound |
| --- | --- |
| 0.14 | O=C1NC2CCCCCC2N1c1nc2cc(Cl)ccc2o1 (stereo not given) |
